Assay results taken from US8957077B2, “Pyrazolopyrimidine PDE 10 inhibitors” (Merck Sharp & Dohme Corp., priority 2010, dated 2015).

molecular target: human PDE10A2 (Homo sapiens (Human), UniProt Q9Y233); test: PDE10 fluorescence polarization (IMAP FP) inhibition assay; type: biochemical; details: human PDE10 enzyme, FAM-labeled cAMP substrate, read-out: PDE10A Ki
Experimental: The activity of the compounds in accordance with the present invention as PDE10 inhibitors may be readily determined without undue experimentation using a fluorescence polarization (FP) methodology that is well known in the art (Huang, W., et al.,J. Biomol Screen, 2002, 7: 215).
In a typical experiment the PDE10 inhibitory activity of the compounds of the present invention was determined in accordance with the following experimental method. PDE10A2 was amplified from human fetal brain cDNA (Clontech, Mountain View, Calif.) using a forward primer corresponding to nucleotides 56-77 of human PDE10A2 (Accession No. AF127480, Genbank Identifier 4894716), containing a Kozak consensus sequence, and a reverse primer corresponding to nucleotides 2406-2413 of human PDE10A2 (Accession No. AF127480, Genbank Identifier 4894716). Amplification with Easy-A polymerase (Stratagene, La Jolla, Calif.) was 95° C. for 2 minutes followed by thirty three cycles of 95° C. for 40 seconds, 55° C. for 30 seconds, and 72° C. for 2 minutes 48 seconds. Final extension was 72° C. for 7 minutes. The PCR product was TA cloned into pcDNA3.2-TOPO (Invitrogen, Carlsbad, Calif.) according to standard protocol. AD293 cells with 70-80% confluency were transiently transfected with human PDE10A2/pcDNA3.2-TOPO using Lipofectamine 2000 according to manufacturer specifications (Invitrogen, Carlsbad, Calif.). Cells were harvested 48 hours post-transfection and lysed by sonication (setting 3, 10×5 sec pulses) in a buffer containing 20 mM HEPES, 1 mM EDTA and protease inhibitor cocktail (Roche). Lysate was collected by centrifugation at 75,000×g for 20 minutes. Supernatant containing the cytoplasmic fraction was used for evaluation of PDE10A2 activity. The fluorescence polarization assay for cyclic nucleotide phosphodiesterases was performed using an IMAP® FP kit supplied by Molecular Devices, Sunnyvale, Calif. (product # R8139). IMAP® technology has been applied previously to phosphodiesterase assays (Huang, W., et al., J. Biomol Screen, 2002, 7: 215). Assays were performed at room temperature in 384-well microtiter plates with an incubation volume of 20.2 μL. Solutions of test compounds were prepared in DMSO and serially diluted with DMSO to yield 8 μL of each of 10 solutions differing by 3-fold in concentration, at 32 serial dilutions per plate. 100% inhibition is determined using a known PDE10 inhibitor, which can be any compound that is present at 5,000 times its Ki value in the assay described as follows, such as papaverine (see Siuciak, et al. Neuropharmacology (2006) 51:386-396; Becker, et al. Behav Brain Res (2008) 186(2):155-60; Threlfell, et al., J Pharmacol Exp Ther (2009) 328(3):785-795), 2-{-4-[pyridin-4-yl-1-(2,2,2-trifluoroethyl)-1H-pyrazol-3-yl]phenoxymethyl}quinoline succinic acid or 2-[4-(1-methyl-4-pyridin-4-yl-1H-pyrazol-3-yl)-phenoxymethyl]quinoline succinic acid (see Schmidt, et al. J Pharmacol Exp Ther (2008) 325:681-690; Threlfell, et al., J Pharmacol Exp Ther (2009) 328(3): 785-795). 0% of inhibition is determined by using DMSO (1% final concentrations).
A Labcyte Echo 555 (Labcyte, Sunnyvale, Calif.) is used to dispense […] from each well of the titration plate to the 384 well assay plate. A solution of enzyme ( 1/1600 dilution from aliquots; sufficient to produce 20% substrate conversion) and a separate solution of FAM-labeled cAMP PDE from Molecular Devices (product # R7506), at a final concentration of 50 nM are made in the assay buffer (10 mM Tris HCl, pH 7.2, 10 mM MgCl2, 0.05% NaN3 0.01% Tween-20, and 1 mM DTT). The enzyme and the substrate are then added to the assay plates in two consecutive additions of 10 μL, and then shaken to mix. The reaction is allowed to proceed at room temperature for 30 minutes. A binding solution is then made from the kit components, comprised of 80% Solution A, 20% Solution B and binding reagent at a volume of 1/600 the total binding solution. […]

human PDE10A2, sequence (Q9Y233 267-1055): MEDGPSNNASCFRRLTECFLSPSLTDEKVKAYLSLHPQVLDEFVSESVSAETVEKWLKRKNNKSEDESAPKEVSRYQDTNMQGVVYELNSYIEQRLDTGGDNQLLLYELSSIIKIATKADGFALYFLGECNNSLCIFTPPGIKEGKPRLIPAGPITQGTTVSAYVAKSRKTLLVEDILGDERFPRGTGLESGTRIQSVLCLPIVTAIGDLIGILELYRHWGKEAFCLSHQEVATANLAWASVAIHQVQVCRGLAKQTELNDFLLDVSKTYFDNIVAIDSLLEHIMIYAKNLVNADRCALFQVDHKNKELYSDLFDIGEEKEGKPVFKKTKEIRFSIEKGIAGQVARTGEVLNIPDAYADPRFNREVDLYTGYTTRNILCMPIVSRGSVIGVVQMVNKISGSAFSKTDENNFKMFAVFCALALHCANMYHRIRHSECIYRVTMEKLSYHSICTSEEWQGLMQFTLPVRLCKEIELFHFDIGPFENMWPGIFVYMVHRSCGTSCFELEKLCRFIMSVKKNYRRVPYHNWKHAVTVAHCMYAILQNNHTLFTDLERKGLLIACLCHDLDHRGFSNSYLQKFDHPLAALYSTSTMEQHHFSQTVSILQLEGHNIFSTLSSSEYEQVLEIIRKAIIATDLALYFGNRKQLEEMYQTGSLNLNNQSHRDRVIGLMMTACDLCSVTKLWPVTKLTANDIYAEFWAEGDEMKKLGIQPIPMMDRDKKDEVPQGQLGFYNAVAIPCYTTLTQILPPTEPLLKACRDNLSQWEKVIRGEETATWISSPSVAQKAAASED

Row | Ki [nM] | Structure (SMILES)
1 | 0.11 | Cc1ncc(CNc2cc(OC[C@H]3C[C@@H]3c3ccccn3)nc3ccnn23)s1 [Compound 1-4, (S,S)-N-[(2-methyl-1,3-thiazol-5-yl)-methyl]-5-{[2-(pyridin-2-yl)cyclopropyl]methoxy} pyrazolo[1,5-a]pyrimidin-7-amine]
2 | 9.2 | Cc1nc(C)c(CNc2cc(C3CC3)nc3ccnn23)s1 [Compound 1-9, 5-cyclopropyl-N-[(2,4-dimethyl-1,3-thiazol-5-yl)methyl]pyrazolo [1,5-a]pyrim-idin-7-amine]
3 | 1.3 | COc1ccc([C@H]2C[C@@H]2COc2cc(NCc3oc(C)nc3C)n3nccc3n2)nc1 (stereo in doubt) [Compound 1-3, N-[(2,4-dimethyl-1,3-oxazol-5-yl)methyl]-5-{[2-(5-methoxy-pyridin-2-yl)cyclopropyl]-methoxy}pyrazolo [1,5-a]pyrimidin-7-amine]
4 | 20 | Cc1ccc([C@H]2C[C@@H]2COc2cc(Oc3ccc(C)nc3)n3nccc3n2)nc1 [Compound 1-22, 5-{[(1S,2S)-2-(5-methylpyridin-2-yl)cyclopropyl]methoxy}-7-[(6-methylpyridin-3-yl)oxy]pyrazolo[1,5-a] pyrimidine]
5 | 0.14 | Cc1nc(C)c(CNc2cc(CCC#Cc3ccc4ccccc4n3)nc3ccnn23)s1 [Compound 1-15, N-[(2,4-dimethyl-1,3-thiazol-5-yl)methyl]-5-[4-(quinolin-2-yl)but-3-yn-1-yl]pyrazolo[1,5-a] pyrimidin-7-amine]
6 | 0.18 | Cc1nc(C)c(CNc2cc(C(=O)NC[C@H]3C[C@@H]3c3ccc4ccccc4n3)nc3ccnn23)s1 [Compound 1-23, 7-((2,4-dimethylthiazol-5-yl)methylamino)-N-(((1S,2S)-2-(quinolin-2-yl)cyclopropyl)methyl) pyrazolo[1,5-a] pyrimidine-5-carboxamide]
7 | 0.37 | COc1ccc(CCCCc2cc(NCc3sc(C)nc3C)n3nccc3n2)nc1 [Compound 1-10, N-[(2,4-dimethyl-1,3-thiazol-5-yl)methyl]-5-[4-(5-methoxy-pyridin-2-yl)butyl]pyrazolo [1,5-a]pyrimidin-7-amine]
8 | 2.52 | Cc1c(OC[C@H]2C[C@@H]2c2ccccn2)nc2ccnn2c1NCc1cnn(C)c1 [Compound 1-20, 6-methyl-N-[(1-methyl-1H-pyrazol-4-yl)methyl]-5-{[(1S,2S)-2-(pyridin-2-yl)cyclopropyl]methoxy} pyrazolo[1,5-a] pyrimidin-7-amine]
9 | 0.08 | Cc1nnc(CNc2c(F)c(OC[C@H]3C[C@@H]3c3ccccn3)nc3ccnn23)s1 [Compound 1-18, 6-fluoro-N-[(5-methyl-1,3,4-thiadiazol-2-yl)methyl]-5-{[(1S,2S)-2-(pyridin-2-yl)cyclopropyl]methoxy} pyrazolo[1,5-a] pyrimidin-7-amine]
10 | 76.9 | Cc1nc(C)c(CNc2cc(C(C)C[C@@H]3C[C@H]3c3ccccn3)nc3ccnn23)s1 (stereo in doubt) [Compound 1-13, N-[(2,4-dimethyl-1,3-thiazol-5-yl)methyl]-5-{1-[2-(pyridin-2-yl)cyclopropyl]propan-2-yl}pyrazolo[1,5-a] pyrimidin-7-amine]
11 | 1.1 | Cc1nc(C)c(CNc2cc(C(=O)NCCc3ccccn3)nc3ccnn23)s1 [Compound 1-25, 7-((2,4-dimethylthiazol-5-yl)methylamino)-N-(2-(pyridin-2-yl)ethyl)pyrazolo [1,5-a] pyrimidine-5-earboxanaide]
